Assay results published in US7642269B2, “Pyrrolo[3,2-B]pyridine derivatives and processes for the preparation thereof” (Yuhan Corporation, priority 2005, dated 2010).

Key:
[1] = target: T1, hog gastric H^+/K^+-ATPase (Sus scrofa, UniProt P19156); assay: Reversible inhibition of hog gastric H^+/K^+-ATPase (Washout method); format: biochemical; conditions: for inhibition of H^+/K^+-ATPase activity after washout: activity completely recovered to non-treated group level; for inhibition of H^+/K^+-ATPase activity before washout: at the concentration giving 50% inhibition of the proton pump
T1 construct: from tissue; host or cells: hog fundic mucosa (gastric vesicles / microsomes, lyophilized)
T1 sequence (P19156 2-1034 limits assumed): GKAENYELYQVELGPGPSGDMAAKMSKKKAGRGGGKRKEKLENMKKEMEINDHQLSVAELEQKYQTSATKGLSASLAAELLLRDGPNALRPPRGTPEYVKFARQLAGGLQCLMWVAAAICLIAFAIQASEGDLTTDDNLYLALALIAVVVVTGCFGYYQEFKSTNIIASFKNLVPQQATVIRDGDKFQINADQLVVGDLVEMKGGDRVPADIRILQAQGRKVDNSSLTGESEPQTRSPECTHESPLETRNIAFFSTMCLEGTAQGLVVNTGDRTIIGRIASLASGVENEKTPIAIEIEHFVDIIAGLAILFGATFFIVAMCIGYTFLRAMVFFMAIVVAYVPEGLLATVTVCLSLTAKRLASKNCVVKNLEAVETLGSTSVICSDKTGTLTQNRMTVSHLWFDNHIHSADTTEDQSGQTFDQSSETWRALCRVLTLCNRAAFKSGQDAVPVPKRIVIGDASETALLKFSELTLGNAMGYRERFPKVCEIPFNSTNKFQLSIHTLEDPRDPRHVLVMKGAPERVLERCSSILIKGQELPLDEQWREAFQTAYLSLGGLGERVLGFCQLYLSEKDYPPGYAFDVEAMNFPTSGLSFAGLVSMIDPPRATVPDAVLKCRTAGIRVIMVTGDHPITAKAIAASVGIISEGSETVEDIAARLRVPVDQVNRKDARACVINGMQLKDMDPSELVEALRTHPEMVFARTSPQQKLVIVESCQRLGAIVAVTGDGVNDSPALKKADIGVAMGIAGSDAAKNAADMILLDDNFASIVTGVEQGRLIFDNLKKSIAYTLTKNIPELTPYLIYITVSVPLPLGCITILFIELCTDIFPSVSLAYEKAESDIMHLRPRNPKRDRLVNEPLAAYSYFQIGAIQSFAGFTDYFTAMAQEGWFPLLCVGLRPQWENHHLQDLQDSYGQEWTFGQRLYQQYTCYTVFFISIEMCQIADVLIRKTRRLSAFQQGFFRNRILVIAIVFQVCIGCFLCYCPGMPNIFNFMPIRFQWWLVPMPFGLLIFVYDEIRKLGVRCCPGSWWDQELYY
T1 sequence (P18434 whole entry partner): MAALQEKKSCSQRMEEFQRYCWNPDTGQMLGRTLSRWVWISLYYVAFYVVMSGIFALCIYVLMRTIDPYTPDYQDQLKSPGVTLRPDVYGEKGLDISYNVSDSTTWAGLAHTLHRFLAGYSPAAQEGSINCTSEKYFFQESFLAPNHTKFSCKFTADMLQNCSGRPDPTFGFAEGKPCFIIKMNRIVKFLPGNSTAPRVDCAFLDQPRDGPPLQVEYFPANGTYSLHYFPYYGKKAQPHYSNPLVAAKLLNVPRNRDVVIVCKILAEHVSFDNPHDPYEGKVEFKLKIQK
Procedure: 3-1. […] Gastric vesicles were prepared from hog fundic mucosa using the method of Saccomani et al. (Saccomani […], Lewin M and Sachs G, Characterization of gastric mucosal membranes. IX. Fraction and purification of K-ATPase-containing vesicles by zonal centrifugation and free-flow electrophoresis technique. Biochem. Biophy. Acta. (BBA)-Biomembranes 465, 311-330, 1977.). This material was lyophilized and stored at -70° C. The protein content of gastric vesicles was determined by the Bradford method using bovine serum albumin as a standard (Bradford M M, A rapid and sensitive method for the quantitation of microgram quantities of protein utilizing the principle of protein-dye binding. Anal Biochem. 72, 248-254, 1976). 3-2. Determination of reversible inhibition of hog gastric H^+/K^+-ATPase Activity of H^+/K^+-ATPase in hog microsome (lyophilized vesicle) was measured by the inorganic phosphate released from ATP using an one-step colorimetric detection method at the concentration at which the test compounds have 50% inhibition of the proton pump (Chan […], and Junger K D, A direct colorimetric assay for Ca^2+-stimulated ATPase activity. Anal Biochem, 157, 375-380, 1986). […] Differentiation of their inhibition characteristics from those of omeprazole. Eur. J. Pharmacol., 187, 455-67, 1990). Lyophilized vesicle in the solution of 5 mM Pipes/Tris buffer was pre-incubated in the presence of the test compounds (the compounds of Examples 50, 64, and 94) at the concentration at which it has 50% inhibition of the proton pump. The previous reaction buffer was added with 2 mM MgCl2, 50 mM KCl, 5 uM Valinomycin, and 0.5 mM ATP and then incubated for 30 minutes at 37° C. The H^+/K^+-ATPase activity was measured using the calorimetric detection method and then the test sample was centrifuged at 100,000×g for 1 hr. The vesicles are present in the form of pellets in the test sample. The supernatant thereof was replaced with the same buffer not having the test compound. […] The H^+/K^+-ATPase activity was also measured using the calorimetric detection method. The H^+/K^+-ATPase activity before washout and after washout in the test sample was analyzed, in comparison with those in the non-treated group.

H^+/K^+-ATPase = target: T2, H^+/K^+-ATPase (Sus scrofa, UniProt P19156); assay: Inhibitory effects on proton pump (H^+/K^+-ATPase) activity, hog gastric vesicles; format: biochemical; conditions: K^+ stimulated H^+/K^+-ATPase activity, hog gastric vesicle, Pi measured at 620 nm
T2 construct: used as an enzyme source of the in vitro enzyme reaction assay of proton pump; from tissue; host or cells: hog gastric fundic mucosa (membrane vesicles, lyophilized)
T2 sequence (P19156 2-1034 limits assumed): as the sequence (P19156 2-1034 limits assumed) above
T2 sequence (P18434 whole entry partner): as the sequence (P18434 whole entry partner) above
How it was run: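 Lyophilized hog gastric vesicles in Pipes/Tris pH 6.1 were preincubated 5 min with compounds (1% DMSO), then run with ATP for 30 min at 37 °C. Released phosphate was measured by malachite green at 620 nm; K^+-stimulated activity taken as the difference between reactions with and without K^+.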

[2] = system: basal gastric acid secretion; assay: Inhibitory effects on basal gastric acid secretion in pylorus-ligated rats (Shay's rat model); format: in vivo, Sprague Dawley (SD) rats; conditions: oral, one hour before pylorus ligation, total acid output 5 hours after ligation, male SD rats
Procedure: Inhibitory effects of the compounds of the present invention on basal gastric acid secretion were performed according to Shay's rat model (Shay, H., et al., 1945, gastroenterology, 5, 43-61). Male Sprague Dawley (SD) rats (200±10 g body weight) were divided into 3 groups (n=5) and fasted for 24 hours with free access to water. Control group was orally administered with 0.5% methylcellulose alone and the other groups were orally administered with test compounds suspended in 0.5% methyl-cellulose solution at doses of 1, 3 and 10 mg/kg/5 ml one hour before pylorus ligation. Under ether anesthesia, the abdomens of the rats were incised and then the pylorus was ligated. 5 hours after ligation, the animals were sacrificed, and the gastric contents were collected. The collected contents were centrifuged at 1,000×g for 10 minutes to obtain the gastric juice. Total acid output was measured by 0.01N NaOH volume (ueq/ml) for automatic titration of the gastric juice to pH 7.0 and the ED50s of test compounds were calculated using the Litchfield-Wilcoxon method. % inhibitory activity was calculated from the following equation and the results are shown in Table 2. % inhibitory activity of test compound=(total acid output of control group−total acid output of the group treated with test compounds)/total acid output of control group X 100

Row | inhibition of H^+/K^+-ATPase activity after washout [1] | IC50 (H^+/K^+-ATPase) [µM] | inhibition of H^+/K^+-ATPase activity before washout [1] [%] | Structure (SMILES) | ED50 [2] [mg/kg]
1 | did not inhibit |  |  | Cc1c(C)n(Cc2ccccc2)c2c(OCc3ccc(F)cc3)ccnc12.O=S(=O)(O)c1ccccc1 [Example 64, 1-benzyl-7-(4-fluorobenzyloxy)-2,3-dimethyl-1H-pyrrolo[3,2-b]pyridine benzenesulfonate] | 
2 | did not inhibit | 0.89 | 50 | COC(=O)c1ccc(Cn2c(C)c(C)c3nccc(OCc4ccc(Cl)cc4)c32)cc1.Cl [Example 94, 7-(4-chlorobenzyloxy)-1-(4-methoxycarbonylbenzyl)-2,3-dimethyl-1H-pyrrolo[3,2-b]pyridine hydrochloride] | 
3 | did not inhibit | 2.44 | 50 | Cc1c(C)n(CC(C)C)c2c(OCc3ccc(F)cc3)ccnc12.Cl [Example 50, 7-(4-fluorobenzyloxy)-1-isobutyl-2,3-dimethyl-1H-pyrrolo[3,2-b]pyridine hydrochloride] | 2.4
